“Also recorded” adds a separate entry of the source.
Tested on: ruptured MCL of a surgical sympathectomy (SS) rat
Experiment: Local neuropeptide delivery to ruptured MCL of surgical sympathectomy (SS) rats: mechanical testing, histomorphology
Format: in vivo
Settings: for failure force / ultimate stress / mechanical strength of healing MCL (in words): two weeks of healing; for mechanical strength of healing MCL (in words): local delivery
Source text: Surgical Procedure: Thirteen female Wistar rats (306 g to 339 g) were divided into two groups: surgical sympathectomy (SS) or sham control. All rats were anesthetized with isofluorane as described in Example 1. A transperitoneal approach was used. The lower abdomen was shaved and prepared for surgery. A skin incision approximately 25 mm long was made. Fascia and abdominal muscle were incised. Abdominal organs were displaced. With the aid of a dissecting microscope, fascia surrounding the deep muscle tissue was separated (with minimal disruption to the muscle tissue) to expose the post-ganglionic sympathetic nerves. The L1-4 nerves were isolated and transected (with removal of a 5 mm segment of the nerves) in the surgical sympathectomy group only. In both groups, the deep muscle tissue was returned to its initial position and abdominal organs were replaced. Abdominal muscles and skin were closed in two layers with a 3-0 or 4-0 continuous dexon suture. Rats from each group (n=4 SS; n=3 controls) then underwent a complete surgical rupture of the MCL to one knee. The contra-lateral knee underwent sham surgery. […] Two weeks post-surgery, rats were sacrificed using an overdose of pentobarbitone (150 mg/kg).
Local delivery of NPs and NP inhibitors is important to identify the specific roles of individual NPs on healing tissues. An animal model for the local delivery of NPs has been developed and is presented in this Example. Briefly, NP infused mini-osmotic pumps were implanted subcutaneously into the back of rats. A small catheter running from the pump to an intramuscular space above the MCL was secured to the rat.
To test whether autonomic NPs improve healing in SS-ruptured MCLs, three female Wistar rats (193 g to 204 g) were given VIP locally to the MCL. Vasoactive intestinal peptide (75 pg/μl) was infused into a mini-osmotic pump and was delivered to a ruptured MCL of a surgical sympathectomy (SS) rat (see surgical procedure above). Within minutes of surgical intervention, all rats recovered and had normal movement and behavior (grooming, feeding, etc.). […] The results are presented graphically in FIG. 6.
Animal Model and Surgery: Thirty-seven female Wistar rats (199-298 g) were divided into five groups. […] Rats that were designated to receive SP or CGRP underwent bilateral femoral nerve transection (see previous examples). Rats that were designated to receive NPY, VIP, or a combination of NPY and VIP underwent bilateral surgical sympathectomy. Following surgical nerve transection, each rat also underwent bilateral MCL rupture. Neuropeptides were then delivered ruptured MCLs unilaterally. Neuropeptide infused mini-osmotic pumps (Alzet Corp.) were implanted subcutaneously into the back of each rat. A small catheter running from the pump was run to an intramuscular space above the MCL and was secured. To ensure that neuropeptides are delivered directly to the MCL, rhodamine labeled SP was delivered via a catheter to the MCL (n=2 rats).
Within minutes of surgical intervention, all rats recovered and had normal movement and behavior (grooming, feeding, etc.). To test whether autonomic NPs improve healing in SS ruptured MCLs, seven rats were given VIP, seven rats were given NPY, and seven rats were given a combination of VIP and NPY. […]
Mechanical Testing: Mechanical testing was performed as described in the preceding examples. Briefly, animal hind limbs from all groups (n=4 for all groups) were disarticulated at the hip joint and stored at −80° C. until testing. On the day of testing, MCLs including intact femoral and tibial bone sections were excised for ex vivo testing. Ligament thickness and width was measured optically, and MCL area was estimated with elliptical geometry. For strain measurements, optical markers were placed onto the ligament tissue near the insertion sites. […]

[1] = Example 3: VIP 75 pg/μl via mini-osmotic pump to ruptured MCL of SS rat
[2] = Example 6: SS rats, bilateral MCL rupture, mini-osmotic pump (NPY 65 pg/100 μl; VIP 100 pg/100 μl; or both)

vasoactive intestinal peptide [VIP]
failure force [1]: 44.23 N
ultimate stress [1]: 29.63 MPa
failure force [2]: 44.2±3.1 N
ultimate stress [2]: 29.6±10.0 MPa
histomorphology (H&E) of healing MCL (SS rats, VIP or NPY, two weeks): more aligned
mechanical strength of healing MCL (in words) (SS rats): greater than the strength of uninjured MCLs; also recorded: completely reversed the functional deficits
mechanical strength of healing MCL (in words) (SS rats, listed as Vasoactive intestinal peptide): greater strength than intact, normally innervated MCLs

From patent US20060247156A1, “Use of neuropeptides for ligament, cartilage, and bone healing” (priority 2004, published 2006)
